Test results taken from article PMC9754190, “Human CYP2B6 produces oxylipins from polyunsaturated fatty acids and reduces diet-induced obesity” (PLOS ONE, 2022).

Experiments:
CYP2B6 [1] = target: T1, CYP2B6 (Homo sapiens, UniProt P20813); assay: Vivid CYP2B6 Blue fluorescence inhibition assay with recombinant baculosomes; assay type: biochemical; parameters: CYP2B6-containing baculosomes
T1 sequence (P20813 1-491): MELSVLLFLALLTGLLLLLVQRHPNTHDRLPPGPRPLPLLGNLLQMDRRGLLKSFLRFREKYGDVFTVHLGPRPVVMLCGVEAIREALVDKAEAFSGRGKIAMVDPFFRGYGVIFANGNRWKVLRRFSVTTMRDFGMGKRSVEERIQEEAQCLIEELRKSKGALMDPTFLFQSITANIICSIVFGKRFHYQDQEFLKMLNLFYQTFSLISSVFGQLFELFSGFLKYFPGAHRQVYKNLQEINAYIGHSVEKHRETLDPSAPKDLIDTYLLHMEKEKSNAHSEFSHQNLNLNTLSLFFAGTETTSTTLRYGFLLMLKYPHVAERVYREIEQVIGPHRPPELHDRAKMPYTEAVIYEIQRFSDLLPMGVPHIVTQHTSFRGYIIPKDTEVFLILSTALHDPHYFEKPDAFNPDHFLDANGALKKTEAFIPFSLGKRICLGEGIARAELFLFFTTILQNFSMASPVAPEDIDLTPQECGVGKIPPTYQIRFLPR

CYP2B6 [2] = target: T1, CYP2B6; assay: biochemical

IC50 (CYP2B6 [2]) | Structure (SMILES) | IC50 (CYP2B6 [1])
 | CCCCC/C=C\C/C=C\C/C=C\C/C=C\CCCC(=O)O [AA, arachidonic acid] | 1510 nM
4480 nM | CC/C=C\C/C=C\C/C=C\CCCCCCCC(=O)O [ALA, α-linolenic acid] | 
 | CC/C=C\C/C=C\C/C=C\C/C=C\C/C=C\C/C=C\CCC(=O)O [DHA, docosahexaenoic acid] | 2400 nM
 | CCCCC/C=C\C/C=C\CCCCCCCC(=O)O [LA, linoleic acid] | 2900 nM
